Tests used:
[1] = target: Human Androgen Receptor (Homo sapiens (Human), UniProt P10275); assay: Androgen receptor assay: [3H]R1881 displacement, cytosol of HEK-293 cells transfected with hAR (hydroxylapatite assay); type: binding; conditions: relative binding affinity, R1881 = 100
[2] = tested on: Shionogi mouse mammary carcinoma cells; assay: In vitro androgenic/antiandrogenic activity: proliferation of Shionogi cells with or without DHT; type: cell-based; conditions: Mus musculus, read-out: Shionogi Antiandrogenic Activity IC50, DHT (0.3 nM)-stimulated cell number
[3] = tested on: castrated (CX) immature male rats; assay: Systemic androgenic (agonistic) activity in orchidectomized (CX) immature male rats; type: in vivo, rat; conditions: 0.1 mg/rat/po, 7 days; for CX Agonistic activity % Stimulation Bulbo: bulbocavernosus muscles weight; for CX Agonistic activity % Stimulation SV: seminal vesicles weight; for CX Agonistic activity % Stimulation Prostate: ventral prostate weight

Human Androgen Receptor, sequence (P10275 whole entry): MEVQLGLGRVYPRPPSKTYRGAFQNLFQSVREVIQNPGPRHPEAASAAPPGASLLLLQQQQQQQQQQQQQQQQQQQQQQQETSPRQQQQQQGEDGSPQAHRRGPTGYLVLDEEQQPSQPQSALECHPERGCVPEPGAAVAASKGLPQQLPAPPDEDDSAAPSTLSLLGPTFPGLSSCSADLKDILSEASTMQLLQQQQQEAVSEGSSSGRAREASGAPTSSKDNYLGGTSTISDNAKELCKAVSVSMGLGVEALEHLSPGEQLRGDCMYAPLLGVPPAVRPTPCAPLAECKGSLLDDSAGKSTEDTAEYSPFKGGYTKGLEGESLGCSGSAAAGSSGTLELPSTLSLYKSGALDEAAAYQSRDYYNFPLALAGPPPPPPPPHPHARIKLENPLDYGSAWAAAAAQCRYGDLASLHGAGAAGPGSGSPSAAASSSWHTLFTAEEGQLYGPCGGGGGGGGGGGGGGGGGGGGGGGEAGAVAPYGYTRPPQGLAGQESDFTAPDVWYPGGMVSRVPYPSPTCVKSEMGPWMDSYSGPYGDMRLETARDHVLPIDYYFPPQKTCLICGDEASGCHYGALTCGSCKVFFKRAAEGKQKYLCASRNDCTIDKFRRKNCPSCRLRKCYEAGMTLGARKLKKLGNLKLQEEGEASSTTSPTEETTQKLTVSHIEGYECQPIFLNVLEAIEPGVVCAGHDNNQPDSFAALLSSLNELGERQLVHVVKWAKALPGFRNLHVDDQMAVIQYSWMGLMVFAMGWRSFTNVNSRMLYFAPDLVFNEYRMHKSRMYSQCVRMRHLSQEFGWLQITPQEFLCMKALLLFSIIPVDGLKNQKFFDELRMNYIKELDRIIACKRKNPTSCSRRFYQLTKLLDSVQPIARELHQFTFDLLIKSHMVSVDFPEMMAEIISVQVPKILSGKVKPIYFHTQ

Row | SMILES | Human Androgen Receptor Binding RBA (%) R1881 = 100 ([1]; […]) [%] | IC50 [2] [nM] | CX Agonistic activity % Stimulation Bulbo [3] [%] | CX Agonistic activity % Stimulation SV [3] [%] | CX Agonistic activity % Stimulation Prostate [3] [%] | Human Androgen Receptor Binding RBA (%) R1881 = 100 ([1]; transfected cells) [%]
1 | Cc1c(N2C(=O)C(C)(C)N(CCCOc3ccc(-c4ccnc(F)c4)cc3)C2=S)ccc(C#N)c1Cl [EM-8922] | 414 | 79 | 134 | 54 | 52 | 
2 | Cc1c(N2C(=O)C(C)(C)N(CCCOc3ccc(-c4ccncc4)c(C#N)c3)C2=S)ccc(C#N)c1Cl [EM-8933] | 134 | 110 | 136 | 43 | 46 | 
3 | Cc1c(N2C(=O)C(C)(C)N(CCCOc3ccc(-c4ccncc4F)cc3)C2=S)ccc(C#N)c1C(F)(F)F [EM-8974] | 41.9 | 112 | 139 | 24 | 61 | 
4 | Cc1c(N2C(=O)C(C)(C)N(CCCOc3ccc(-c4ccncc4Cl)cc3)C2=S)ccc(C#N)c1Cl [EM-8977] | 89.8 | 100 | 194 | 65 | 72 | 
5 | CC1(C)C(=O)N(c2ccc(C#N)c(C(F)(F)F)c2)C(=S)N1CCCOc1ccc2ncccc2c1 [EM-8990] | 53.6 | 9.7 | 3 | 1 | 0 | 
6 | CC1(C)C(=O)N(c2ccc(C#N)c(C(F)(F)F)c2)C(=S)N1CCCOc1ccc2cccnc2c1 [EM-8991] | 28.5 | 38.5 | 1 | 2 | 2 | 
7 | Cc1c(N2C(=O)C(C)(C)N(CCCOc3ccc(-c4ccc(N(C)C)nc4)cc3)C2=S)ccc(C#N)c1Cl [EM-8993] |  | 59.5 | 123 | 61 | 50 | 4.8
8 | Cc1c(N2C(=O)C(C)(C)N(CCCOc3ccc(-c4ccc(N(C)C)nc4)c(F)c3)C2=S)ccc(C#N)c1Cl [EM-8996] |  | 100 | 131 | 53 | 49 | 48.9
9 | CC1(C)C(=O)N(c2ccc(C#N)c(C(F)(F)F)c2)C(=S)N1CCCOc1ccc2ncncc2c1 [EM-9010] | 29.5 | 10 | 5 | 0 | 0 | 
10 | CC1(C)C(=O)N(c2ccc(C#N)c(C(F)(F)F)c2)C(=S)N1CCCOc1ccc2cnccc2c1 [EM-9021] | 166.8 | 5 | 9 | 0 | 1 | 
